The text below walks through data of patent publication US20050261250A1, “Compositions and methods for inhibiting bone resorption” (Merck & Co., Inc.,, priority 2004, published 2005).

SMILES strings stand for the structures.

Data set [1] is described as follows: Autoxidative lability of vitamin D3 as oil or amorphous solid (HPLC). The data set is classed as physicochemical. To be noted: 20-40° C., within hours. The source says: It is also understood that vitamin D can undergo autoxidation through induction by a free radical initiator or spontaneously in solid or solution phase to form a variety of products, some of which have been identified. Representative characterization of vitamin D degradation (and, specifically, vitamin D3 in this instance) in embodiments of compositions of the present invention confirms the autoxidative lability of vitamin D3 in which vitamin D3 was converted to an oil or amorphous solid and exposed to temperatures from 20-40° C. […] At longer exposure times, these absorptions continued to decrease as further reaction occurred.

The conditions of data set [2]: cited from earlier work.

In the case of `C=C1CC[C@H](O)C/C1=C/C=C1\CCC[C@]2(C)[C@@H]([C@H](C)CCCC(C)C)CC[C@@H]12` [Vitamin D3, cholecalciferol], in data set [1], the “HPLC analysis of vitamin D3 after exposure” value is “extensive destruction”.
For `C=C1CC[C@H](O)C/C1=C/C=C1\CCC[C@]2(C)[C@@H]([C@H](C)/C=C/[C@H](C)C(C)C)CC[C@@H]12` [vitamin D2, ergocalciferol], in data set [2], the aqueous solubility entry is given as “water insoluble”.
